This passage reports melting point results from a melting point compilation (Tetko et al.; mined from patent text by program, amines drawn as free bases though some values may be those of a salt).

Molecules are shown by their SMILES. A value given as a limit tells only on which side of the number the result lay.

Take `C[C@@H]1CN(c2ncc(Cl)cc2Cl)CCN1c1nc2c(Br)cc(C(F)(F)F)cc2[nH]1`: the melting point is 135 to 137 °C.

`CCOC(=O)C1=C(C)NN=C(CC)C1c1cccc2ccccc12` (stereo not given) registered a melting point of 122 °C.

Turning to `O=C(CN1CCN(c2ncccn2)CC1)c1ccc(-c2cccc(C(F)(F)F)c2)nc1`, the melting point lay in the range of 124 to 126 °C.

The molecule `Cc1cn2cc(Cl)ccc2n1` gave a melting point of 94 to 96 °C.

The molecule `CC1(C)CCC(C)(C)c2cc(-c3csc(C=CC(=O)O)c3)ccc21` showed a melting point of 182 to 185 °C.

The molecule `Clc1nnc(Cl)c2sccc12` returned a melting point of 260 to 263 °C.

`O=[N+]([O-])c1cccc(OCc2csc(-c3ccccc3)n2)c1` had a melting point of 112 to 114 °C.

Regarding `CC1(C)NC(=O)C2CNCCN21` (stereo not given), the melting point was found to be 174 °C.

As to `COc1ccccc1-n1c(=O)[nH]c2c(C(N)=O)nc(-c3cccc4ncccc34)nc21`, the melting point lay in the range of 335 to 337 °C.

As for `COc1ccccc1Nc1ncc(C(=O)O)c(=O)[nH]1`, the melting point fell in the range of 251 to 253 °C.

The molecule `Cc1cccc(-n2c(CF)nc3ccc([N+](=O)[O-])cc3c2=O)c1C` came in with a melting point of 178 to 180 °C.

The molecule `Cc1cc(-c2ccc(C(F)(F)F)nc2)cc(-c2cccc(-c3ccc(S(N)(=O)=O)s3)c2)n1` displayed a melting point of 231 to 233 °C.

For `COC(=O)c1ccc2cc(-c3ccc(OCCCO)c(C45CC6CC(CC(C6)C4)C5)c3)ccc2c1`, the melting point was 202 °C.

In turn, `ClCCOc1ccc(OCCCl)c(Cl)c1` displayed a melting point of 135 to 137 °C.

In turn, `COC(=O)CC(=O)/C=C/c1c(-c2ccc(F)cc2)n(C(C)C)c(=O)c2ccccc12` returned a melting point of 123 to 125 °C.

`CNc1cc2c(c(C)c1F)c(=O)c(C(=O)O)cn2-c1cc(N)c(F)cc1F` registered a melting point of more than 270 °C.

As for `Fc1ccc2[nH]cc(CC3CCN(CCOc4ccc5c(c4)CCC5)CC3)c2c1`, the melting point is 150 to 152 °C.

For `Cc1cc(SC2=C(O)CC(C3CCCC3)(C3CCCC3)OC2=O)c(C(C)(C)C)cc1OCCO`, the melting point was in the range of 90 to 92 °C.

In turn, `Cc1ccc(C(=O)Cn2cc(Cl)cnc2=O)c(C)c1` came in with a melting point of 221 to 222 °C.

`CC1(C)NC(=O)N(c2ccc(F)cc2)C1=O` displayed a melting point of 166 to 167 °C.

In the case of `CC(c1ccc(-c2ccccc2F)cc1)S(=O)CC(=O)N(C)C` (stereo not given), the melting point lay within 131 to 133 °C.

On to `COC(=O)CNC(=O)[C@H](CSC(c1ccccc1)(c1ccccc1)c1ccccc1)NC(=O)OC(C)(C)C`, for which the melting point was 167 to 169 °C.

Molecule `Cc1ccc(-c2ccc(C(=O)Nc3ccc4cc(CN5CCCC5)cnc4c3C)cc2)s1` displayed a melting point of 220 to 221 °C.

`COC(=O)c1ccc(-c2nc(-c3ccc(Cl)cc3)no2)c(N)c1` displayed a melting point of 227 to 228 °C.

In turn, `COC(=O)C=Cc1ccc(OCCc2nc(-c3ccccc3)oc2C)cc1` yielded a melting point of 114 to 115 °C.

Regarding `CCOC(=O)N[C@@H](C(=O)N1CCC[C@H]1C(=O)O)c1ccccc1`, the melting point is 163 to 166 °C.

As to `O=C(O)COc1cc(Cl)ccc1C(=O)NCc1c(F)cccc1F`, the melting point is 188 to 190 °C.

For `CC(=O)Oc1ccc2cc(NCCCCNC(=O)OC(C)(C)C)c(=O)oc2c1`, the melting point was found to be 120 °C.

For the molecule `COc1cc2c(cc1OC)C(NC=O)C(c1ccc3c(c1)OCO3)CC2` (stereo not given), the melting point was in the range of 150 to 190 °C.

`CC(C)(C)c1cc(C(=O)O)cc(I)c1O` gave a melting point of 178 °C.

On to `COC(=O)N1CCC(Nc2nc3ccccc3n2Cc2ccc(F)cc2)C(C)C1` (stereo not given), for which the melting point is 172 °C.

Consider `C=CCN1C2C=C(c3cc4ccccc4s3)CC1CC2` (stereo not given), for which the melting point was in the range of 60.6 to 62.6 °C.

`CCCCn1c(C)c(C)cc(N)c1=O` gave a melting point of 94 to 97 °C.

Take `CC(C(N)=O)c1ccc2c(c1)C(=O)Cc1ccccc1O2` (stereo not given): the melting point lay within 154 to 155 °C.

Turning to `CCOC(=O)c1cccc(NC(=O)C(CO)NS(=O)(=O)c2ccc(Cl)cc2)c1` (racemic), the melting point is 142 to 144 °C.

The molecule `COC(=O)/C=C1\CCc2cc(C(C)(C)C)ccc21` gave a melting point of 116 to 118 °C.

As to `COC(=O)c1cc2c3cc([N+](=O)[O-])ccc3n(C)c2s1`, the melting point is 269 to 271 °C.

Molecule `CC(C)(NC=O)c1cc(Cl)cc(Cl)c1` yielded a melting point of 115 to 117 °C.

Take `CN(C)C(=O)C1=NN(c2ccccc2)C(C(N)=O)=NN1c1ccccc1`: the melting point was in the range of 243 to 244 °C.

For the molecule `CCCc1c(OCCCSc2ccc(CC(=O)O)cc2Cl)ccc2c(-c3ccccc3)coc12`, the melting point came out at 143 °C.

For `COc1ccc(C2(C)Cc3cc(O)c(Cl)c(Cl)c3C2=O)cc1` (stereo not given), the melting point fell in the range of 149 to 156 °C.

Molecule `CC(C)(C)OC(=O)[C@H](NS(=O)(=O)c1ccc2c(Cl)cnc(Cl)c2c1)C(C)(C)C` returned a melting point of 140 to 142 °C.

In turn, `O=C(O)Cc1ccccc1Oc1ccc(C(F)(F)F)cc1NS(=O)(=O)c1cc(C(F)(F)F)cc(C(F)(F)F)c1` yielded a melting point of 165 to 166 °C.

Molecule `Oc1nc(Cc2ccc(F)cc2)ncc1F` had a melting point of 169 to 170 °C.

`CCCCCCCc1ccc([C@H]2CC[C@H](O)CC2)cc1`: the melting point is 80.2 to 82.5 °C.

On to `COCCc1nc2c(N)nc3ccccc3c2n1CCOCCN(C)S(=O)(=O)C(C)C`, for which the melting point came out at 130 °C.

`O=C1NC(=O)C2(CCCc3ncc(Cl)cc32)N1` (stereo not given) had a melting point of 230 to 233 °C.

Consider `C=CCc1c(O)ccc2c1C(CCNC(=O)CC)CN2C=O` (stereo not given), for which the melting point lay within 173 to 175 °C.

On to `O=C1CC[C@@H](CO)N1Cc1ccccc1`, for which the melting point was in the range of 82 to 84 °C.

`CC1=C(C)C(=O)N(c2ccc(Cl)c(Cl)c2)C1=O`: the melting point was 188 °C.

Molecule `Cc1n[nH]c(=O)n1-c1ccc(OCC(F)(F)C(F)F)cc1` returned a melting point of 206 to 207 °C.

`CC1(C)SC(CCCc2ccc(C(=O)O)cc2)N(CCC2(O)CCCCC2)C1=O` (stereo not given) gave a melting point of 132 to 137 °C.

Regarding `Cc1c(-c2ccccc2)c(N2CC[C@H](N(C)C)C2)c2oc(-c3ccccc3O)nc2c1C#N`, the melting point fell in the range of 159 to 162 °C.

Turning to `CC(=O)N(O)Cc1ccc(C(O)C#Cc2cccs2)cc1` (stereo not given), the melting point lay within 125 to 126 °C.

`O=C(O)CON(Cc1ccc(F)cc1)C(=O)C=C(O)C(=O)O` gave a melting point of 135 to 138 °C.

Turning to `Cc1cc(Cl)cc(NC(=O)Cc2ccc(O)cc2)c1`, the melting point lay within 176 to 178 °C.

As to `c1ccc2c(c1)-c1cccc3c(NCCCCNc4nccc5ccccc45)nnc-2c13`, the melting point fell in the range of 95 to 105 °C.

Consider `O=C1CCC(N2Cc3c(OCc4ccc5nccn5c4)cccc3C2=O)C(=O)N1` (stereo not given), for which the melting point was in the range of 270 to 272 °C.

`NC(=S)C(F)(F)C[C@H]1CN(c2ccc(C3C=CS(=O)(=O)CC3)cc2)C(=O)O1` (stereo not given in full): the melting point was in the range of 139 to 140 °C.

On to `Nc1ccc(-c2noc(-c3cnc4ccc(-c5ccc(Cl)cc5)cn34)n2)cn1`, for which the melting point was 273 °C.

For the molecule `COCCn1cc2c(C3C(=O)Nc4ccc(Br)cc43)nc(Cl)nc2n1` (stereo not given), the melting point is more than 300 °C.

As to `COC(OC)c1ccc2c(c1)C(C)(C)C(=O)CC2(C)C`, the melting point is 91 to 92 °C.

The molecule `Nc1c(Cl)cnc(OCCO)c1Cl` returned a melting point of 77.5 to 81 °C.

In turn, `CCOC(=O)c1cccc(-c2c(C)c(NC(=O)CC(C)(C)C)c(C)c3c2OCC3c2ccc(C(C)C)cc2)c1` (stereo not given) returned a melting point of 175 to 177 °C.

Take `CS(=O)(=O)c1ccc(-c2cc(C(CCCO[N+](=O)[O-])=NO)nn2C2CCCCC2)cc1`: the melting point fell in the range of 121 to 123 °C.

In turn, `COc1nc(N)ccc1C(=O)CCC1CCN(CC2CCCCC2)CC1` came in with a melting point of 73.2 °C.

`Nc1nc2c(ncn2C2CCC(CO)O2)c(=O)[nH]1` (stereo not given): the melting point is more than 250 °C.

Regarding `Cc1ncoc1CN1CCc2c(c3cccc(F)c3n2C)C1=O`, the melting point is 158 to 161 °C.

Consider `CNC(=O)N1C=CSC1c1sc(SC)c2c1CC(C)(C)CC2=O` (stereo not given), for which the melting point fell in the range of 202 to 204 °C.

`Cn1cc(-c2ncc(-c3ccc4cc(OCC#N)ccc4c3)o2)c2ccccc21` registered a melting point of 196 to 198 °C.

In turn, `CC(=O)N1CCN(CCn2c3ccccc3c(=NN=C3NCCS3)c3ccccc32)CC1` yielded a melting point of 256 °C.

As for `Cc1onc(-c2ccc(Cl)c(Cl)c2)c1-c1ccc(S(N)(=O)=O)cc1`, the melting point fell in the range of 66 to 71 °C.

The molecule `COc1cc2cc(COC(C)=O)c(COC(C)=O)c(C=O)c2cc1OC` registered a melting point of 154 to 155 °C.

On to `COC(=O)c1cc(OCc2ccc3ccccc3n2)n(C(C)C)n1`, for which the melting point lay in the range of 106 to 107 °C.

On to `CS(=O)(=O)Nn1c(=O)[nH]c2cc(C(F)(F)F)c(N3CCC(=O)CC3)cc2c1=O`, for which the melting point was in the range of 238 to 242 °C.

The molecule `COc1ccc(N(C)C(=O)CN2C(=O)c3ccccc3C2=O)c(OC)c1COc1cccc2ccc(C)nc12` showed a melting point of 184 to 185 °C.

Consider `CCOC(=O)Nc1nc(-c2ccccc2)c(-c2nc3ccccc3c(=O)n2-c2ccc(C)cc2)s1`, for which the melting point is more than 275 °C.

For the molecule `C=C1c2ccccc2-c2ccccc21`, the melting point fell in the range of 46 to 48 °C.

In turn, `CC(C)(C(O)c1ccc(Br)cc1)n1ncn(-c2ccc(N3CCN(c4ccc(O)cc4)CC3)cc2)c1=O` (stereo not given) had a melting point of 224 °C.

`COc1ccccc1Sc1c(NS(=O)(=O)c2ccc(C(C)(C)C)cc2)ncnc1OCCOC(=O)Nc1ccccn1` yielded a melting point of 193 °C.

`CC(C)C1=NCCSC1=NOC(=O)N(C)SN1CCOCC1` gave a melting point of 127 to 128 °C.

Molecule `OCc1cc(Cl)c(F)cn1` registered a melting point of 50 to 52 °C.

The molecule `O=C1CCC(C(=O)OCc2ccc(Cl)cc2)N1` (stereo not given) had a melting point of 119 to 120 °C.

Regarding `CCOC(=O)c1cn(C2CC2)c2c(F)c(F)c(F)c(N)c2c1=O`, the melting point lay in the range of 223 to 225 °C.

The molecule `Cc1cc2c(c(C)c1N)C(c1ccccc1)CO2` (stereo not given) yielded a melting point of 127 to 128 °C.

`Cc1ccc(-c2ccc3c(c2)CCc2nn(-c4ccccn4)c(O)c2-3)cc1` had a melting point of 177 to 178 °C.

As to `O=C1CCC2=C1C(c1cccc(Br)c1)C1=C(CCS1)N2` (stereo not given), the melting point was determined as 246 °C.

As to `CC(=O)Cc1ccc(SCCCBr)cc1`, the melting point fell in the range of 40 to 41 °C.

`O=C1NCCc2c(-c3ccc(F)c(Cl)c3)[nH]c3cccc1c23` registered a melting point of 234 to 235 °C.

As for `COc1cc(COc2nn(-c3ccccc3)cc2/C=C/S(C)(=O)=O)ccc1OCc1nc(-c2ccco2)oc1C`, the melting point lay within 152 to 153 °C.

For orientation: melting point means the temperature, or range, at which the solid turns liquid.
